Laboratory results reported in ChEMBL document CHEMBL1147336, “A new antibacterial sesquiterpene from Premna oligotricha” (1993).
Values after ≈ are worked out from the molar mass of the structure shown. Active and inactive are the calls of the source. No cut-off for these calls is given here.

Legend:
[1] = system: Bacillus pumilus; assay: Antibacterial activity against Bacillus pumilus NCTC 10327; type: functional
[2] = system: Bacillus subtilis; assay: Antibacterial activity against Bacillus subtilis NCTC 10452; type: functional
[3] = system: Escherichia coli; assay: Antibacterial activity against Escherichia coli NCTC 9001 at 200 ug/ml; type: functional, organism-based
[4] = system: Pseudomonas aeruginosa; assay: Antibacterial activity against Pseudomonas aeruginosa NCTC 6750 at 200 ug/ml; type: functional, organism-based
[5] = system: Staphylococcus aureus; assay: Antibacterial activity against Staphylococcus aureus NCTC 6571; type: functional
[6] = system: Enterococcus faecalis; assay: Antibacterial activity against Streptococcus faecalis NCTC 775; type: functional

| MIC [1] | MIC [2] | MIC [5] | MIC [6] | SMILES | Activity [3] | Activity [4] |
| --- | --- | --- | --- | --- | --- | --- |
| 50 µg/mL (≈ 210 µM) | 100 µg/mL (≈ 420 µM) | 50 µg/mL (≈ 210 µM) | 150 µg/mL (≈ 629 µM) | C=C(CC[C@@H]1C(C)(C)CCC[C@]1(C)O)C(C)=O | inactive | inactive |
| 0.94 µg/mL | 3.75 µg/mL | 3.75 µg/mL | 15 µg/mL | CN[C@@H]1[C@H](O[C@H]2[C@H](O[C@H]3[C@H](O)[C@@H](O)[C@H](N=C(N)N)[C@@H](O)[C@@H]3N=C(N)N)O[C@@H](C)[C@]2(O)C=O)O[C@@H](CO)[C@H](O)[C@H]1O.CN[C@@H]1[C@H](O[C@H]2[C@H](O[C@H]3[C@H](O)[C@@H](O)[C@H](N=C(N)N)[C@@H](O)[C@@H]3N=C(N)N)O[C@@H](C)[C@]2(O)C=O)O[C@@H](CO)[C@H](O)[C@H]1O.O=S(=O)(O)O.O=S(=O)(O)O.O=S(=O)(O)O [STREPTOMYCIN SULFATE] | – | – |
